# Measurements from patent US5698547A, “Cephalosporin antibiotics” (Microcide Pharmaceuticals, Inc., priority 1995, dated 1997).
# Structures can show the parent of a compound that is named as a salt.
# How the values were obtained:
# [1] = tested on: S. aureus Col (Meth^R) (lac^-); assay: MIC by agar dilution, S. aureus Col (Meth^R) (lac^-); type: cell-based; details: Staphylococcus aureus; agar dilution; S. aureus Col (Meth^R) (lac^-); read-out: MIC
# Method: The compounds of the invention were evaluated against several β-lactamresistant bacteria strains by determining the minimum inhibitory concentration (MIC, μg/ml) of each compound with respect to each strain. The MIC, the lowest concentration of antibiotic which inhibits growth of the test organism, was determined by the agar dilution method.
# To determine the MIC for bacterial isolates, the test compound was incorporated in a series of two-fold dilutions into liquified Mueller-Hinton agar. Upon solidification, a number of different bacterial strains were spot inoculated with a replicating device onto the agar surface. […] The procedures used in these studies have been standardized by the National Committee for Clinical Laboratory Standards (NCCLS), as per the NCCLS publication entitled METHODS FOR DILUTION ANTIMICROBIAL SUSCEPTIBILITY TESTS (1991), which is incorporated herein by reference.
# Aliquots of antimicrobial agents were prepared in phosphate buffered saline (PBS) at pH 7.2. Tween 20 or DMSO was used as a solubilizing vehicle as needed. Standard methods of vortexing, sonicating and gentle heat were used to facilitate solubilizing the test agent. Typically, the concentration of the stock solution was 10× that of the highest drug concentration tested. A 1.28 mg/mL stock solution was used with a subsequent highest working concentration of 128 μg/mL. Serial two-fold dilutions were done through ≤0.25 μg/mL. Each drug level was tested in duplicate. Two-fold drug dilutions were done in sterile 50 mL tubes with a final drug volume of 5 mL. Upon the addition of 45 mL of molten agar, a 10-fold dilution resulted. Two, 25 mL. plates were then poured into 15×150 mm square Petri plates with grids and allowed to harden.
# A control plate with a reference drug, either cefotaxime, vancomycin or imipenem, was used as the positive growth control. Stock concentrations of reference antibiotics were prepared and frozen at -80° C. Upon preparation, the control plates were sealed and stored in the refrigerator for up to 1 week prior to use; however, imipenem control plates had to be prepared just prior to use. All test plates were used within 24 hours of preparation.
# Satisfactory results were obtained where the inoculum contained about 10^4 colony forming units (cfu) ±0.5 logs. Starting with pure cultures of the test isolates on agar plates, a few isolated colonies were transferred to a tube of nutrient broth and allowed to grow 4-6 hours at 35°-36° C. to reach log-phase growth. Dropwise addition of the broth culture to PBS was done to match a 0.5 McFarland turbidity standard equal to 10^8 cfu/mL. This was further diluted ten-fold in PBS to reach a working inoculum concentration of 10^7 cfu/mL. When 1 μL of the working inoculum was applied to the agar surface a concentration of about 10^4 cfu per spot was obtained.
# Disposable sterile 1 μL loops were used to inoculate test plates, with each isolate in a designated grid on the agar plate. An alternate method of inoculation involved the use of a replica plater, a device with 48 steel pins allowing the simultaneous inoculation of multiple isolates. After the spots had dried, the plates were incubated at 35°-36° C. for 16-20 hours. Endpoints were assessed as the minimum inhibitory concentration (MIC) of antimicrobial agent.
# The novel agents of this invention are notable for their enhanced activity against S. aureus Col and Enterococci (E. faecium and E. faecalis). The S. aureus Col strain is a high-level PBP2a producer, whereas S. aureus Col 8A, its isogenic partner, lacks PBP2a. […] Thus, the compounds of the present invention are effective against PBP2a-producing bacteria.
# [2] = tested on: methicillin-susceptible S. aureus strain ATCC 13709; assay: murine model for lethal bacteremic peritonitis; type: in vivo, female Swiss-Webster mice; details: subcutaneous, 72 h
# Method: Groups of 5 female Swiss-Webster mice (Simonsen, Gilroy, Calif.) each are challenged by the intraperitoneal (IP) route with tenfold increments of a bacterial inoculum. This permits calculation of the mean lethal dose (LD50) and the LD100. For preliminary evaluation of a new antibiotic, mice are challenged IP with an LD100 titer of bacteria. In two equal doses administered at the time of bacterial challenge and 2 hours later, groups of 10 mice each are treated subcutaneously with two-fold increments of the test drug and an antibiotic of known efficacy in mice and humans (i.e., positive control). Mice are observed for 72 h. Those alive at 72 h are considered long term survivors. The total drug dose in mg/kg that protects 50% of mice in a group from death is termed the mean protective dose (PD50). PD50 s are similarly determined for several pathogens. The quantitative endpoints for the new drug are then compared with those obtained with reference antibiotics.
# Six ten-fold dilutions of inoculum suspended in 0.5 mL of sterilized 7% hog gastric mucin (Sigma) are injected IP in groups of 5 mice each. A control group of 5 mice receive mucin alone. Mice are observed for 72 h. Those alive at 72 h are considered long term survivors. The mean lethal dose (LD50) and 100% lethal dose (LD100) are determined by the probit test.
# For antibiotic efficacy studies, mice are challenged IP with bacterial titers that will afford an LD100 for the test strain. In two equal doses administered at the time of bacterial challenge and 2 hours later, groups of 10 mice each are treated by the subcutaneous route (SC) with twofold increments of the test antibiotic; another group is treated similarly with a reference antibiotic of known efficacy in animals and man. Drug doses can range from 0.01 to 512 mg/kg. If the drug is poorly soluble, Tween 20 or propylene glycol will be employed to solubilize the drug. Animals are observed for 72 h. The 50% protective dose (PD50) is calculated in mg/kg by the probit method. The PD50 is the same as the 50% effective dose (ED50) and the 50% curative dose (CD50). Samples of blood from the hearts of all animals that die and from half the mice that survive are cultured on brain-heart infusion agar. Animals that received a protective dosage of the test drug will be alive at 72 h, although they may appear moderately ill to very ill during the observation period. […] Most of these mice will die within 6 to 48 h. Those alive at 72 h will be considered long term survivors.
# (Compound numbers correspond to those in MIC tables; data
# reported for challenge with methicillin-susceptible S. aureus
SMILES,MIC [1] [µg/mL],also measured
O=C(Cc1ccccc1)N[C@@H]1C(=O)N2C(C(=O)O)=C(Sc3ccccc3CSc3ncccn3)CS[C@H]12 [Cmpd 75],8,–
"O=C(Cc1ccccc1)N[C@@H]1C(=O)N2C(C(=O)O)=C(Sc3cccc4c3CCCC4)CS[C@H]12 [Cmpd 56, (7R)-7-[(Phenylacetyl)amino]-3-(5,6,7,8-tetrahydronaphthalen-1-ylthio)-3-cephem-4-carboxylic acid]",1,–
"CN(C)C(SCc1ccc(SC2=C(C(=O)[O-])N3C(=O)[C@@H](NC(=O)Cc4ccccc4)[C@H]3SC2)c(I)c1)=[N+](C)C [Cmpd 62, (7R)-7-[(Phenylacetyl)amino]-3-(4-tetramethylisothiouroniummethyl-2-iodophenylthio)-3-cephem-4-carboxylate, inner salt]",4,–
"O=C(Cc1ccccc1)N[C@@H]1C(=O)N2C(C(=O)O)=C(Sc3cccc(-c4ccccc4)c3)CS[C@H]12 [Cmpd 10, (7R)-7-[(Phenylacetyl)amino]-3-(3-biphenylthio)-3-cephem-4-carboxylic acid]",8,–
"Nc1nc(/C(=N/O)C(=O)N[C@@H]2C(=O)N3C(C(=O)O)=C(Sc4ccccc4-c4ccccc4)CS[C@H]23)cs1 [Cmpd 42, (7R)-7-[(Z)-2-(aminothiazol-4-yl)-2-(hydroxyimino)acetamido]-3-(2-biphenylthio)-3-cephem-4-carboxylic acid]",4,–
"N#CCC(=O)N[C@@H]1C(=O)N2C(C(=O)O)=C(Sc3ccccc3-c3ccccc3)CS[C@H]12 [Cmpd 34, (7R)-7-[(Cyanoacetyl)amino]-3-(2-biphenylthio)-3-cephem-4-carboxylic acid]",2,–
O=C1CNC(SCc2ccccc2SC2=C(C(=O)O)N3C(=O)[C@@H](NC(=O)Cc4ccccc4)[C@H]3SC2)=N1 [Cmpd 68],8,–
"Nc1nc(/C(=N/OCCF)C(=O)N[C@@H]2C(=O)N3C(C(=O)O)=C(Sc4ccnn4-c4ccccc4)CS[C@H]23)cs1 [Cmpd 90, (7R)-7-[(Z)-2-(aminothiazol-4-yl)-2-(2-fluoroethyloxyimino)acetamido]-3-(1-N-phenylpyrazol-5-ylthio)-3-cephem-4-carboxylic acid]",8,–
"O=C(Cc1ccccc1)N[C@@H]1C(=O)N2C(C(=O)O)=C(Sc3ccc4c(c3)oc3ccccc34)CS[C@H]12 [Cmpd 7, (7R)-7-[(Phenylacetyl)amino]-3-(dibenzofuranyl-3-thio)-3-cephem-4-carboxylic acid]",4,–
"CSCC(=O)N[C@@H]1C(=O)N2C(C(=O)O)=C(Sc3ccccc3CSC(=N)NN)CS[C@H]12 [Cmpd 133, (7R)-7-[(methylthioacetyl)amino]-3-(2-(N-amino)isothiouroniummethylphenylthio)-3-cephem-4-carboxylate, inner salt]",2 to 4,–
"O=C(Cc1ccccc1)N[C@@H]1C(=O)N2C(C(=O)O)=C(Sc3ccc(Br)cc3Br)CS[C@H]12 [Cmpd 39, (7R)-7-[(Phenylacetyl)amino]-3-(2,4-dibromophenylthio)-3-cephem-4-carboxylic acid]",0.5,–
"O=C(Cc1ccccc1)N[C@@H]1C(=O)N2C(C(=O)O)=C(Sc3cccc4ccccc34)CS[C@H]12 [Cmpd 54, (7R)-7-[(Phenylacetyl)amino]-3-(1-naphthalenylthio)-3-cephem-4-carboxylic acid]",1,–
"O=C(Cc1ccccc1)N[C@@H]1C(=O)N2C(C(=O)[O-])=C(Sc3ccc[n+](Cc4ccccc4)c3-c3ccccc3)CS[C@H]12 [Cmpd 83, (7R)-7-[(Phenylacetyl)amino]-3-(2-phenyl-N-benzylpyridin-3-iumthio)-3-cephem-4-carboxylate]",4,–
"N#Cc1ccccc1SC1=C(C(=O)O)N2C(=O)[C@@H](NC(=O)/C(=N\OC3CCCC3)c3csc(N)n3)[C@H]2SC1 [Cmpd 53, (7R)-7-[(Z)-2-(aminothiazol-4-yl)-2-(cyclopentyloxyimino)acetamido]-3-(2-cyanophenylthio)-3-cephem-4-carboxylic acid]",4,–
"N=C(N)SCc1ccccc1SC1=C(C(=O)O)N2C(=O)[C@@H](NC(=O)Cc3ccc(O)cc3)[C@H]2SC1 [Cmpd 99, (7R)-7-[((4-Hydroxyphenyl)acetyl)amino]-3-(2-isothiouroniummethylphenylthio)-3-cephem-4-carboxylic acid, inner salt]",4,–
Cc1nnc(SCc2ccccc2SC2=C(C(=O)O)N3C(=O)[C@@H](NC(=O)Cc4ccccc4)[C@H]3SC2)s1 [Cmpd 77],8,–
"O=C(Cc1ccccc1)N[C@@H]1C(=O)N2C(C(=O)O)=C(Sc3cccc4oc5ccccc5c34)CS[C@H]12 [Cmpd 21, (7R)-7-[(Phenylacetyl)amino]-3-(dibenzofuranyl-1-thio)-3-cephem-4-carboxylic acid]",1,–
"O=C(Cc1cccs1)N[C@@H]1C(=O)N2C(C(=O)O)=C(Sc3cc(Cl)ccc3Cl)CS[C@H]12 [Cmpd 26, (7R)-7-[(2-Thienylacetyl)amino]-3-(2,5-dichlorophenylthio)-3-cephem-4-carboxylic acid]",0.5,–
"CC(C)Oc1ccccc1SC1=C(C(=O)O)N2C(=O)[C@@H](NC(=O)Cc3ccccc3)[C@H]2SC1 [Cmpd 47, (7R)-7-[(Phenylacetyl)amino]-3-(2-isopropyloxyphenylthio)-3-cephem-4-carboxylic acid]",1,–
"CN[C@H](CC(C)C)C(=O)N[C@H]1C(=O)N[C@@H](CC(N)=O)C(=O)N[C@H]2C(=O)N[C@H]3C(=O)N[C@H](C(=O)N[C@H](C(=O)O)c4cc(O)cc(O)c4-c4cc3ccc4O)[C@H](O)c3ccc(c(Cl)c3)Oc3cc2cc(c3O[C@@H]2O[C@H](CO)[C@@H](O)[C@H](O)[C@H]2O[C@H]2C[C@](C)(N)[C@H](O)[C@H](C)O2)Oc2ccc(cc2Cl)[C@H]1O [Vancomycin, reference compound]",–,"Mortality ([2]; dose 0.625 mg/kg): 8/10; Mortality ([2]; dose 1.25 mg/kg): 6/10; Mortality ([2]; dose 2 mg/kg): 8/10; Mortality ([2]; dose 2.5 mg/kg): 5/10; Mortality ([2]; dose 4 mg/kg): 2/10; Mortality ([2]; dose 5 mg/kg): 5/10; Mortality ([2]; dose 8 mg/kg): 0/10; Mortality ([2]; dose 10 mg/kg): 2/10; Mortality ([2]; dose 16 mg/kg): 0/10; ED50 ([2]; two equal doses, S. aureus ATCC 13709 IP challenge, 4320 min): 2.79 mg/kg"
